According to ChEMBL document CHEMBL1136829, “Adenosine kinase inhibitors: polar 7-substitutent of pyridopyrimidine derivatives improving their locomotor selectivity” (Bioorg Med Chem Lett, 2003):

Key:
Adenosine kinase [1] = biological target: T1, Adenosine kinase (Homo sapiens, UniProt P55263); experiment: Inhibitory concentration against adenosine kinase was determined in cell assay
Adenosine kinase [2] = biological target: T1, Adenosine kinase; experiment: Inhibitory concentration against adenosine kinase was determined
Rattus norvegicus = organism: Rattus norvegicus; experiment: Effective dose to reduce pain in carregenin induced thermal hyperalgesia assay in rat was determined; assay type: functional
[3] = Effective dose to reduce locomotor side effects in animals was determined; assay type: functional
[4] = Percent inhibition of the locomotor side effects in animals at 100 umol/kg po was determined; assay type: functional
[5] = Percent inhibition of the locomotor side effects in animals at 30 umol/kg po was determined; assay type: functional

T1 sequence (P55263 whole entry): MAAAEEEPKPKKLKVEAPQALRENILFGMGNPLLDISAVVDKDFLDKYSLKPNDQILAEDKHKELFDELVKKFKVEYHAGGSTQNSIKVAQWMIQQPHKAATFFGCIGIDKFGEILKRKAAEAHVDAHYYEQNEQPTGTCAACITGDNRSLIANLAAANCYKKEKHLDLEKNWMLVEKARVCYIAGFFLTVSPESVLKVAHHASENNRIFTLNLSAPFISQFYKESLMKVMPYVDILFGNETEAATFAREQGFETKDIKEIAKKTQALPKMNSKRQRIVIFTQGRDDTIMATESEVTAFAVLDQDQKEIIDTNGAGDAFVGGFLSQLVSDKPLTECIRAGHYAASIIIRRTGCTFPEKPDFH

| Compound | IC50 (Adenosine kinase [1]) [nM] | IC50 (Adenosine kinase [2]) [nM] | ED50 (Rattus norvegicus) [µmol/kg] | ED50 [3] [µmol/kg] | inhibition in vivo at 100 µmol/kg [4] [%] | inhibition in vivo at 30 µmol/kg [5] [%] |
| --- | --- | --- | --- | --- | --- | --- |
| Nc1ncnc2nc(-c3ccc(N4CCC(CCOC5CCOCC5)CC4)nn3)cc(-c3cccc(Br)c3)c12 | 89.5 | 22.8 | 30 | 9 | – | – |
| Nc1ncnc2nc(-c3ccc(N4CCC(O)(C5CCOC5=O)CC4)nc3)cc(-c3cccc(Br)c3)c12 (stereo unspecified) | 50.2 | 8.1 | 4 | – | 87 | 97 |
| Nc1ncnc2nc(-c3ccc(N4CCC(=NOC5CCOCC5)CC4)nn3)cc(-c3cccc(Br)c3)c12 | 52 | 7.1 | 2 | 7 | – | – |
| Nc1ncnc2nc(-c3ccc(N4CCC5(CC4)COCO5)nc3)cc(-c3cccc(Br)c3)c12 | 378 | 8.3 | 2 | 6 | – | – |
| N#C[C@H]1CN(c2ccc(-c3cc(-c4cccc(Br)c4)c4c(N)ncnc4n3)cn2)C[C@H]1O | 496 | 7.5 | 4 | – | – | 91 |
| COCCOC1CCN(c2ccc(-c3cc(-c4cccc(Br)c4)c4c(N)ncnc4n3)nn2)CC1 | 81.9 | 15.1 | 3 | 10 | – | – |
| CCOC1CCN(c2ccc(-c3cc(-c4cccc(Br)c4)c4c(N)ncnc4n3)nn2)CC1 | 51.7 | 10.4 | 7 | 20 | – | – |
| Nc1ncnc2nc(-c3ccc(N4CCC[C@H]4CO)nn3)cc(-c3cccc(Br)c3)c12 | 154 | 16.2 | 10 | – | 75 | 98 |
| Nc1ncnc2nc(-c3ccc(N4C[C@@H](O)[C@@H](O)C4)nc3)cc(-c3cccc(Br)c3)c12 | 130 | 6.5 | 2 | – | – | 73 |
| CON=C1CCN(c2ccc(-c3cc(-c4cccc(Br)c4)c4c(N)ncnc4n3)nn2)CC1 | 74.4 | 18.8 | 13 | 6 | – | – |
| Nc1ncnc2nc(-c3ccc(N4CCC(COC5CCOCC5)CC4)nn3)cc(-c3cccc(Br)c3)c12 | 17.3 | 2.8 | 5 | 5 | – | – |
| C/C(=N/OC1CCOCC1)C1(O)CCN(c2ccc(-c3cc(-c4cccc(Br)c4)c4c(N)ncnc4n3)cn2)CC1 | 43.7 | 31.7 | 5 | 30 | – | – |
| Nc1ncnc2nc(-c3ccc(N4CC5CC4CO5)nc3)cc(-c3cccc(Br)c3)c12 (stereo unspecified) | 19.5 | 7.5 | 2 | 8 | – | – |
| CCO[C@H]1CN(c2ccc(-c3cc(-c4cccc(Br)c4)c4c(N)ncnc4n3)nn2)C[C@H]1OCC | 40.7 | 7.2 | 3 | 25 | – | – |
| Nc1ncnc2nc(-c3ccc(N4CCC(=NOC5CCOCC5)CC4)nc3)cc(-c3cccc(Br)c3)c12 | – | 10 | 2 | 10 | – | – |
